Assay results: patent US11919883B2, “Metalloenzyme inhibitor compounds” (Ji Xing Pharmaceuticals Hong Kong Limited, priority 2016, dated 2024)

How the values were obtained:
[1] = molecular target: T1, recombinant human CYP11B2 (Homo sapiens, UniProt P19099); assay: CYP11B2 enzyme assay, enzyme enriched microsomes from V79-4 cells, aldosterone by LC-MS; type: biochemical; details: IC50 ranges; run at Km of 11-deoxycorticosterone; read-out: hCYP11B2 IC50
T1 construct: made in house; host or cells: V79-4 cells (enzyme enriched microsomal fraction of cell lysates)
T1 sequence (P19099 25-503): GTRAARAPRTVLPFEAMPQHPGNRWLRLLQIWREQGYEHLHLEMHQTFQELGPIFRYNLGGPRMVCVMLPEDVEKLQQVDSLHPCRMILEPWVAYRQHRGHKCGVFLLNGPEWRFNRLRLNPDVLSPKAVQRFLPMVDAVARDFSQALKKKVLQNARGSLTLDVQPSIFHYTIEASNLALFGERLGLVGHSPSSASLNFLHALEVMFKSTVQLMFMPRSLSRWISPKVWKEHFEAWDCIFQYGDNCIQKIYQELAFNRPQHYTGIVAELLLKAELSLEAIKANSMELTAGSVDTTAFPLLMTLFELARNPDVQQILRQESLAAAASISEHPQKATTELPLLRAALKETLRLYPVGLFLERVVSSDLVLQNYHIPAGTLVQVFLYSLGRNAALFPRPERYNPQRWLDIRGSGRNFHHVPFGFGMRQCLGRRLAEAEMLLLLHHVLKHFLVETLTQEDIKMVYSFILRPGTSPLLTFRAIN
Procedure: (§1) An enzyme enriched microsomal fraction was prepared from cellular lysates and subsequently used as the enzyme source for determining inhibitor IC50s. […] Enzyme assays for inhibitor screening employed CYP11B2 and CYP11B1 enzyme enriched microsomes and were run at the Km of the respective substrates. Products of the enzyme reactions, aldosterone for CYP11B2 or cortisol for CYP11B1, were measured by LC-MS. Assays were run under conditions of less than 20% substrate turnover. Inhibitor IC50s were generated by determining the product formation in the absence or presence of inhibitor at various concentrations. In the absence of the test compound, the product formed (Pt) in each data set was defined as 100% activity. In the absence of enzyme, the product formed (Pb) in each data set was defined as 0% activity. The percent activity in the presence of each inhibitor was calculated according to the following equation: % activity=(P−Pb)/(Pt−Pb), where P=the product formed in the presence of the inhibitor.

[2] = molecular target: T2, recombinant human CYP11B1 (Homo sapiens, UniProt P15538); assay: CYP11B1 enzyme assay, enzyme enriched microsomes from V79-4 cells, cortisol by LC-MS; type: biochemical; details: IC50 ranges; run at Km of 11-deoxycortisol; read-out: hCYP11B1 IC50
T2 construct: made in house; host or cells: V79-4 cells (enzyme enriched microsomal fraction of cell lysates)
T2 sequence (P15538 25-503): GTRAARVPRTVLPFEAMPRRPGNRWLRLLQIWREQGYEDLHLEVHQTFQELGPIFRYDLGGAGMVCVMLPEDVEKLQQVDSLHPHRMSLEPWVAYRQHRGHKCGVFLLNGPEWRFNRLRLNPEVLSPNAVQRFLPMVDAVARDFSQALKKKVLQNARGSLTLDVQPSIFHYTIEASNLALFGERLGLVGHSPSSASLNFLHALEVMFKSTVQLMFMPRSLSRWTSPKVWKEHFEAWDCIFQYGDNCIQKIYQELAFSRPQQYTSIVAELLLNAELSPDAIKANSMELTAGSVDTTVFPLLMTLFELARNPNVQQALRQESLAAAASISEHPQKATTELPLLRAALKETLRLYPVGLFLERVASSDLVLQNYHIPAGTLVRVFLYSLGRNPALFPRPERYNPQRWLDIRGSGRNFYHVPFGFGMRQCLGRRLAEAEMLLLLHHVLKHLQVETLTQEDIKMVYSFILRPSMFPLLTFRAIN
Procedure: as §1

| IC50 [1] [nM] | IC50 [2] [nM] | SMILES |
| --- | --- | --- |
| 1 to 100 | 1000 to 10000 | CCn1c(-c2cncnc2C(C)C)nc2ccc(C#N)cc21 [Example 41, 1-Ethyl-2-(4-isopropylpyrimidin-5-yl)-1H-benzo[d]imidazole-6-carbonitrile] |
| 100 to 1000 | 1000 to 10000 | FC(F)(F)Oc1ccc2nc(-c3cncnc3)n(C3CC3)c2c1 [Example 42, 1-Cyclopropyl-2-(pyrimidin-5-yl)-6-(trifluoromethoxy)-1H-benzo[d]imidazole] |
| 1000 to 10000 | > 10000 | N#Cc1ccc2nc(-c3cncnc3)n(CC(F)(F)F)c2c1 [Example 43, 2-(Pyrimidin-5-yl)-1-(2,2,2-trifluoroethyl)-1H-benzo[d]imidazole-6-carbonitrile] |
| 1 to 100 | 1000 to 10000 | CCc1ncncc1-c1nc2cc(F)c(F)cc2n1C1CC1 [Example 45, 1-Cyclopropyl-2-(4-ethylpyrimidin-5-yl)-5,6-difluoro-1H-benzo[d]imidazole] |
| 1 to 100 | 1000 to 10000 | N#Cc1ncncc1-c1nc2cc(F)c(F)cc2n1C1CC1 [Example 46, 5-(1-Cyclopropyl-5,6-difluoro-1H-benzo[d]imidazol-2-yl) pyrimidine-4-carbonitrile] |
| 1 to 100 | 100 to 1000 | CCn1c(-c2cncnc2)cc2ccc(Cl)cc21 [Example 47, 6-Chloro-1-ethyl-2-(pyrimidin-5-yl)-1H-indole] |
| 1 to 100 | 1000 to 10000 | Cc1ncncc1-c1nc2ccc(Cl)nc2n1C1CC1 [Example 48, 5-Chloro-3-cyclopropyl-2-(4-methylpyrimidin-5-yl)-3H-imidazo[4,5-b]pyridine] |
| 100 to 1000 | > 10000 | Cc1ncncc1-c1nc2ccc(C#N)cc2n1CC(F)(F)F [Example 49, 2-(4-Methylpyrimidin-5-yl)-1-(2,2,2-trifluoroethyl)-1H-benzo[d]imidazole-6-carbonitrile] |
| 1 to 100 | 1000 to 10000 | FC(F)c1ncncc1-c1nc2ccc(Cl)cc2n1C1CC1 [Example 50, 6-Chloro-1-cyclopropyl-2-(4-(difluoromethyl)pyrimidin-5-yl)-1H-benzo[d]imidazole] |
| 1 to 100 | > 10000 | CCn1c(-c2cncnc2C(F)F)nc2ccc(C#N)cc21 [Example 51, 2-(4-(Difluoromethyl)pyrimidin-5-yl)-1-ethyl-1H-benzo[d]imidazole-6-carbonitrile] |
| 1 to 100 | 1000 to 10000 | Cc1ncncc1-c1nc2ccc(C#N)nc2n1C1CC1 [Example 52, 3-Cyclopropyl-2-(4-methylpyrimidin-5-yl)-3H-imidazo[4,5-b]pyridine-5-carbonitrile] |
| 1 to 100 | 1000 to 10000 | CCn1c(-c2cncnc2C(F)(F)F)nc2ccc(C#N)cc21 [Example 53, 2-(4-(trifluoromethyl)pyrimidin-5-yl)-1-ethyl-1H-benzo[d]imidazole-6-carbonitrile] |
| 1 to 100 | 1000 to 10000 | N#Cc1ccc2nc(-c3cncnc3C(F)F)n(C3CC3)c2c1 [Example 54, 1-Cyclopropyl-2-(4-(difluoromethyl)pyrimidin-5-yl)-1H-benzo[d]imidazole-6-carbonitrile] |
| 100 to 1000 | > 10000 | Cc1ncncc1-c1nc2cnc(Cl)cc2n1C1CC1 [Example 55, 6-Chloro-1-cyclopropyl-2-(4-methylpyrimidin-5-yl)-1H-imidazo[4,5-c]pyridine] |
| 100 to 1000 | > 10000 | Cc1ncncc1-c1nc2cnc(C#N)cc2n1C1CC1 [Example 56, 1-Cyclopropyl-2-(4-methylpyrimidin-5-yl)-1H-imidazo[4,5-c]pyridine-6-carbonitrile] |
| 1000 to 10000 | > 10000 | c1ncc(-c2nc3c(n2C2CC2)CCCC3)cn1 [Example 57, 1-Cyclopropyl-2-(pyrimidin-5-yl)-4,5,67-tetrahydro-1H-benzo[d]imidazole] |
| 100 to 1000 | > 10000 | COc1ccc2nc(-c3cncnc3C)n(C3CC3)c2n1 [Example 58, 3-Cyclopropyl-5-methoxy-2-(4-methylpyrimidin-5-yl)-3H-imidazo[4,5-b]pyridine] |
